Assay type in all cases: functional
Assay [1] deals with Mycobacterium tuberculosis. Briefly: Antitubercular activity against Mycobacterium tuberculosis H37Rv ATCC 27294 after 5 days by micro plate alamar blue assay. The settings on record: H37Rv ATCC 27294, 120 h.
Assay [2] concerns Mycobacterium tuberculosis. Briefly: Antitubercular activity against Mycobacterium tuberculosis H37Rv ATCC 27294 assessed as ratio of compound or streptomycin MIC to MIC for compound in presence of streptomycin after 5 days by micro plate alamar blue assay.
Assay [3] concerns Mycobacterium tuberculosis. Briefly: Antitubercular activity against Mycobacterium tuberculosis H37Rv ATCC 27294 assessed as ratio of compound or pyrazinamide MIC to MIC for compound in presence of pyrazinamide after 5 days by micro plate alamar blue assay.
For assay [4], the system named is Mycobacterium tuberculosis. Briefly: Antitubercular activity against Mycobacterium tuberculosis H37Rv ATCC 27294 assessed as ratio of compound or ciprofloxacin MIC to MIC for compound in presence of ciprofloxacin after 5 days by micro plate alamar blue assay.
The subject of assay [5] is Mycobacterium tuberculosis. The assay can be described thus: Antitubercular activity against Mycobacterium tuberculosis H37Rv ATCC 27294 assessed as ratio of compound or rifampicin MIC to MIC for compound in presence of rifampicin after 5 days by micro plate alamar blue assay.

In brackets after ≈: the same amount, converted by molar mass.

For the molecule `CC(=O)CC(=O)/C=C/c1ccc(O)c(O)c1`, in assay [1], the MIC was determined as 25 µg/mL (≈ 114 µM).

For the molecule `COc1cc(CCC(=O)CC(C)=O)ccc1O`, in assay [1], 6.25 µg/mL (≈ 26.5 µM) was the least that counted as inhibitory (MIC). Compared with the last molecule, the MIC is about 4-fold lower.

In assay [1], `COc1cc(/C=C/C(=O)CC(C)=O)ccc1O` gave an MIC of 25 µg/mL (≈ 107 µM).

On to `CC(=O)CC(=O)/C=C/c1ccc(O)cc1`, for which the MIC in assay [1] stood at 25 µg/mL (≈ 122 µM). Besides, the Ratio was determined as 0.125 in assay [2], 0.25 in assay [3], 0.062 in assay [4] and 0.062 in assay [5].

As to `COc1ccc(/C=C/C(=O)CC(C)=O)cc1OC`, in assay [1], inhibition of growth (MIC) required 100 µg/mL (≈ 403 µM).

Molecule `COc1ccc(/C=C/C(=O)CC(C)=O)cc1` came in with an MIC in assay [1] of 50 µg/mL (≈ 229 µM).

Molecule `CC(=O)CC(=O)CCc1ccc(O)cc1` displayed an MIC in assay [1] of 1.6 µg/mL (≈ 7.76 µM). Also, the Ratio in assay [2] was 0.25; in assay [3], 0.25; in assay [4], 0.031; in assay [5], 0.062.

For the molecule `COc1ccc(CCC(=O)CC(C)=O)cc1`, the MIC in assay [1] is 25 µg/mL (≈ 113 µM).

For the molecule `COc1ccc(CCC(=O)CC(C)=O)cc1OC`, 100 µg/mL (≈ 400 µM) was the least that counted as inhibitory in assay [1] (MIC).

Turning to `COc1ccc(CCC(=O)CC(C)=O)c(OC)c1OC`, the MIC in assay [1] was > 100 µg/mL.

The molecule `COc1ccc(/C=C/C(=O)CC(C)=O)c(OC)c1OC` gave an MIC in assay [1] of 100 µg/mL (≈ 359 µM).

For `CC(=O)CC(=O)CCc1ccc(O)c(O)c1`, in assay [1], 3.12 µg/mL (≈ 14.1 µM) was the least that counted as inhibitory (MIC).

Consider `COc1cc(/C=C/C(=O)CC(C)=O)ccc1OC(C)=O`, for which the MIC in assay [1] is > 100 µg/mL.

`COc1cc(/C=C/C(=O)CC(C)=O)cc(OC)c1OC` came in with an MIC in assay [1] of 50 µg/mL (≈ 180 µM).

As to `COc1cc(/C=C/C(=O)CC(C)=O)cc(OC)c1OC(C)=O`, the MIC in assay [1] was > 100 µg/mL.

The molecule `COc1cc(CCC(=O)CC(C)=O)cc(OC)c1O` displayed an MIC in assay [1] of 12.5 µg/mL (≈ 46.9 µM).

For `CC(=O)CC(=O)/C=C/c1ccc(OC(C)=O)cc1`, 100 µg/mL (≈ 406 µM) was the least that counted as inhibitory in assay [1] (MIC). Compared with the last molecule, the MIC is about 8-fold higher.

In assay [1], `COc1cc(/C=C/C(=O)CC(C)=O)cc(OC)c1O` gave a minimum inhibitory concentration (MIC) of 50 µg/mL (≈ 189 µM). This MIC is about 2-fold lower than that of the molecule before.

`COc1cc(CCC(=O)CC(C)=O)cc(OC)c1OC(C)=O` returned an MIC in assay [1] of 100 µg/mL (≈ 324 µM).

`COc1cc(OC)c(/C=C/C(=O)CC(C)=O)c(OC)c1` gave an MIC in assay [1] of 100 µg/mL (≈ 359 µM).

In assay [1], `O=C(O)c1cn(C2CC2)c2cc(N3CCNCC3)c(F)cc2c1=O` [CIPROFLOXACIN] came in with an MIC of 3.12 µg/mL (≈ 9.43 µM).

Take `COc1cc(/C=C/C(=O)CC(=O)/C=C/c2ccc(O)c(OC)c2)ccc1O` [CURCUMIN]: in assay [1], the MIC was > 100 µg/mL.

On to `CC[C@@H](CO)NCCN[C@@H](CC)CO` [ETHAMBUTOL], for which it took 1.6 µg/mL (≈ 7.83 µM) to inhibit growth in assay [1] (MIC).

In assay [1], `NNC(=O)c1ccncc1` [ISONIAZID] showed a minimum inhibitory concentration (MIC) of 0.8 µg/mL (≈ 5.83 µM).

On to `NC(=O)c1cnccn1` [PYRAZINAMIDE], for which the MIC in assay [1] was 3.12 µg/mL (≈ 25.4 µM).

In turn, `CO[C@H]1/C=C/O[C@@]2(C)Oc3c(C)c(O)c4c(O)c(c(/C=N/N5CCN(C)CC5)c(O)c4c3C2=O)NC(=O)/C(C)=C\C=C\[C@H](C)[C@H](O)[C@@H](C)[C@@H](O)[C@@H](C)[C@H](OC(C)=O)[C@@H]1C` [RIFAMPIN] registered an MIC in assay [1] of 1.6 µg/mL (≈ 1.94 µM).

On to `CN[C@@H]1[C@H](O[C@H]2[C@H](O[C@H]3[C@H](O)[C@@H](O)[C@H](N=C(N)N)[C@@H](O)[C@@H]3N=C(N)N)O[C@@H](C)[C@]2(O)C=O)O[C@@H](CO)[C@H](O)[C@H]1O` [STREPTOMYCIN], for which, in assay [1], the MIC stood at 6.25 µg/mL (≈ 10.7 µM).

Regarding `C=C/C(C)=C/[C@@]1(C)SC(=O)C(C)=C1O` [THIOLACTOMYCIN], in assay [1], the MIC was found to be 12.5 µg/mL (≈ 59.4 µM). Compared with the last molecule, the MIC is about 2-fold higher.

(Values after ChEMBL document CHEMBL3870343, “Synthesis, screening and docking analysis of hispolon analogs as potential antitubercular agents” (2017).)
